Columns and labels:
[1] = The drug is tested on Bifidobacterium breve strain: DSM20213 for biotransformation. The drug concentrations were measured before and after a 12-h incubation by liquid-chromatography-coupled mass spectrometry (LC–MS); conditions: 2 µM
[2] = The drug is tested on Bifidobacterium longum subsp. Infantis strain: CCUG52486 for biotransformation. The drug concentrations were measured before and after a 12-h incubation by liquid-chromatography-coupled mass spectrometry (LC–MS); conditions: 2 µM
[3] = The drug is tested on Bifidobacterium ruminantium strain: fecal isolate for biotransformation. The drug concentrations were measured before and after a 12-h incubation by liquid-chromatography-coupled mass spectrometry (LC–MS); conditions: 2 µM
[4] = The drug is tested on Collinsella aerofaciens strain: ATCC25986 for biotransformation. The drug concentrations were measured before and after a 12-h incubation by liquid-chromatography-coupled mass spectrometry (LC–MS); conditions: 2 µM
[5] = The drug is tested on Collinsella intestinalis strain: DSM13280 for biotransformation. The drug concentrations were measured before and after a 12-h incubation by liquid-chromatography-coupled mass spectrometry (LC–MS); conditions: 2 µM
[6] = The drug is tested on Bacteroides cellulosilyticus strain: DSM14838 for biotransformation. The drug concentrations were measured before and after a 12-h incubation by liquid-chromatography-coupled mass spectrometry (LC–MS); conditions: 2 µM
[7] = The drug is tested on Bacteroides dorei strain: DSM17855 for biotransformation. The drug concentrations were measured before and after a 12-h incubation by liquid-chromatography-coupled mass spectrometry (LC–MS); conditions: phocaeicola dorei, 2 µM
[8] = The drug is tested on Bacteroides fragilis strain: HMW615 for biotransformation. The drug concentrations were measured before and after a 12-h incubation by liquid-chromatography-coupled mass spectrometry (LC–MS); conditions: 2 µM
[9] = The drug is tested on Bacteroides uniformis strain: ATCC8492 for biotransformation. The drug concentrations were measured before and after a 12-h incubation by liquid-chromatography-coupled mass spectrometry (LC–MS); conditions: 2 µM
[10] = The drug is tested on Bacteroides xylanisolvens strain: DSM18836 for biotransformation. The drug concentrations were measured before and after a 12-h incubation by liquid-chromatography-coupled mass spectrometry (LC–MS); conditions: 2 µM
[11] = The drug is tested on Parabacteroides merdae strain: ATCC43184 for biotransformation. The drug concentrations were measured before and after a 12-h incubation by liquid-chromatography-coupled mass spectrometry (LC–MS); conditions: 2 µM
[12] = The drug is tested on Blautia hansenii strain: DSM20583 for biotransformation. The drug concentrations were measured before and after a 12-h incubation by liquid-chromatography-coupled mass spectrometry (LC–MS); conditions: 2 µM
[13] = The drug is tested on Blautia luti strain: DSM14534 for biotransformation. The drug concentrations were measured before and after a 12-h incubation by liquid-chromatography-coupled mass spectrometry (LC–MS); format: ADME; set-up: dose 2 uM, timepoint 0 vs 12 hours; conditions: 2 µM
[14] = The drug is tested on Clostridium scindens strain: ATCC35704 for biotransformation. The drug concentrations were measured before and after a 12-h incubation by liquid-chromatography-coupled mass spectrometry (LC–MS); conditions: 2 µM
[15] = The drug is tested on Eubacterium rectale strain: ATCC33656 for biotransformation. The drug concentrations were measured before and after a 12-h incubation by liquid-chromatography-coupled mass spectrometry (LC–MS); conditions: agathobacter rectalis, 2 µM
[16] = The drug is tested on Providencia stuartii strain: ATCC25827 for biotransformation. The drug concentrations were measured before and after a 12-h incubation by liquid-chromatography-coupled mass spectrometry (LC–MS); conditions: 2 µM
[17] = bacteroides thetaiotaomicron, 12 h, 2 µM
Description: The drug is tested on Bacteroides thetaiotaomicron strain: VPI-5482 for biotransformation. The drug concentrations were measured before and after a 12-h incubation by liquid-chromatography-coupled mass spectrometry (LC–MS)

[18] = anaerostipes sp., 12 h, 2 µM
Description: The drug is tested on Anaerostipes sp. strain: fecal isolate for biotransformation. The drug concentrations were measured before and after a 12-h incubation by liquid-chromatography-coupled mass spectrometry (LC–MS)

[19] = The drug is tested on Anaerotruncus colihominis strain: DSM17241 for biotransformation. The drug concentrations were measured before and after a 12-h incubation by liquid-chromatography-coupled mass spectrometry (LC–MS); conditions: 2 µM
[20] = The drug is tested on Enterococcus faecalis strain: V583 for biotransformation. The drug concentrations were measured before and after a 12-h incubation by liquid-chromatography-coupled mass spectrometry (LC–MS); conditions: 2 µM

Row | Bacterial Biotransformation [1] | Bacterial Biotransformation [2] | Bacterial Biotransformation [3] | Bacterial Biotransformation [4] | Bacterial Biotransformation [5] | Bacterial Biotransformation [6] | Bacterial Biotransformation [7] | Bacterial Biotransformation [8] | Bacterial Biotransformation [9] | Bacterial Biotransformation [10] | Bacterial Biotransformation [11] | Bacterial Biotransformation [12] | Bacterial Biotransformation [13] | Bacterial Biotransformation [14] | Bacterial Biotransformation [15] | Bacterial Biotransformation [16] | Bacterial Biotransformation [17] | Bacterial Biotransformation [18] | Bacterial Biotransformation [19] | Bacterial Biotransformation [20] | SMILES
1 | Compound NOT metabolized | Compound NOT metabolized | Compound NOT metabolized | Compound NOT metabolized | Compound NOT metabolized | Compound NOT metabolized | Compound NOT metabolized | Compound NOT metabolized | Compound NOT metabolized | Compound NOT metabolized | Compound NOT metabolized | Compound NOT metabolized | Compound NOT metabolized | Compound NOT metabolized | Compound NOT metabolized | Compound NOT metabolized | Compound NOT metabolized | Compound NOT metabolized | – | – | Cc1cc2c(cc1S(N)(=O)=O)S(=O)(=O)CCC2
2 | Compound NOT metabolized | Compound NOT metabolized | Compound NOT metabolized | Compound NOT metabolized | Compound NOT metabolized | Compound NOT metabolized | Compound NOT metabolized | Compound NOT metabolized | Compound NOT metabolized | – | Compound NOT metabolized | Compound NOT metabolized | Compound NOT metabolized | Compound NOT metabolized | Compound NOT metabolized | Compound NOT metabolized | Compound NOT metabolized | Compound NOT metabolized | Compound NOT metabolized | Compound NOT metabolized | CC(C)(C(=O)O)c1ccc(C(O)CCCN2CCC(C(O)(c3ccccc3)c3ccccc3)CC2)cc1 (stereo not given) [FEXOFENADINE]
3 | Compound NOT metabolized | Compound NOT metabolized | Compound NOT metabolized | Compound NOT metabolized | Compound NOT metabolized | Compound NOT metabolized | Compound metabolized | Compound NOT metabolized | – | Compound NOT metabolized | Compound NOT metabolized | Compound NOT metabolized | Compound NOT metabolized | Compound NOT metabolized | Compound NOT metabolized | Compound NOT metabolized | Compound NOT metabolized | Compound NOT metabolized | Compound NOT metabolized | Compound NOT metabolized | Cc1ccc(S(=O)(=O)NC(=O)NN2CC3CCCC3C2)cc1 (stereo not given) [GLICLAZIDE]
4 | Compound NOT metabolized | Compound NOT metabolized | Compound NOT metabolized | Compound NOT metabolized | Compound NOT metabolized | Compound NOT metabolized | Compound NOT metabolized | Compound NOT metabolized | Compound NOT metabolized | Compound NOT metabolized | Compound NOT metabolized | Compound NOT metabolized | Compound NOT metabolized | – | Compound NOT metabolized | Compound NOT metabolized | Compound NOT metabolized | Compound NOT metabolized | Compound NOT metabolized | Compound NOT metabolized | COc1ccccc1OCC(O)COC(N)=O (stereo not given) [METHOCARBAMOL]

From ChEMBL document CHEMBL5303573, “Mapping human microbiome drug metabolism by gut bacteria and their genes” (Nature, 2019)
